PubChem BioAssay (NCI)
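Interpolation was linear, between the two tested concentrations surrounding the appropriate level; five concentrations were tested over 48 hours in 96-well plates. TGI: total growth inhibition.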

Key:
Assay in all cases: NCI anticancer screen, dose series, 48 h
786-0 renal = tested on: 786-0 renal
A498 renal = tested on: A498 renal
HL-60(TB) leukemia = tested on: HL-60(TB) leukemia
MALME-3M melanoma = tested on: MALME-3M melanoma
MOLT-4 leukemia = tested on: MOLT-4 leukemia
NCI-H226 lung = tested on: NCI-H226 lung
SK-MEL-28 melanoma = tested on: SK-MEL-28 melanoma
SN12C renal = tested on: SN12C renal
BT-549 breast = tested on: BT-549 breast
MCF7 breast = tested on: MCF7 breast
MDA-MB-231 breast = tested on: MDA-MB-231 breast

SMILES: CC1(O)C=CC2CCC1C2O (stereo not drawn)
- TGI (786-0 renal): 75.5 µM
- TGI (A498 renal): > 100 µM
- TGI (HL-60(TB) leukemia): > 100 µM
- TGI (MALME-3M melanoma): > 100 µM
- TGI (MOLT-4 leukemia): > 100 µM
- TGI (NCI-H226 lung): > 100 µM
- TGI (SK-MEL-28 melanoma): > 100 µM
- TGI (SN12C renal): > 100 µM

SMILES: Cc1ccc(S(=O)(=O)n2cncc2CO)cc1
- TGI (786-0 renal): > 100 µM
- TGI (BT-549 breast): > 100 µM
- TGI (HL-60(TB) leukemia): > 100 µM
- TGI (MALME-3M melanoma): > 100 µM
- TGI (MCF7 breast): > 100 µM
- TGI (MDA-MB-231 breast): > 100 µM
- TGI (MOLT-4 leukemia): > 100 µM
- TGI (NCI-H226 lung): > 100 µM
- TGI (SK-MEL-28 melanoma): > 100 µM
- TGI (SN12C renal): > 100 µM

SMILES: COc1cc2cc(C(=O)N3CC(CCl)c4c3cc(N)c3ccccc43)[nH]c2cc1OCCN(C)C (stereo not drawn)
- TGI (A498 renal): < 0.005 µM
- TGI (BT-549 breast): 0.409 µM
- TGI (MCF7 breast): 6.52 µM
- TGI (MDA-MB-231 breast): 0.0173 µM
- TGI (MOLT-4 leukemia): 17.4 µM
- TGI (NCI-H226 lung): 0.0224 µM
- TGI (SN12C renal): 0.5 µM

SMILES: CC(=O)/C=C/C=C(\C)CC/C=C(\C)CC(C)C
- TGI (786-0 renal): 97.3 µM
- TGI (A498 renal): 83.3 µM
- TGI (HL-60(TB) leukemia): 33.4 µM
- TGI (MCF7 breast): 57.9 µM
- TGI (MDA-MB-231 breast): > 100 µM
- TGI (MOLT-4 leukemia): 41.9 µM
- TGI (NCI-H226 lung): 68.6 µM
- TGI (SK-MEL-28 melanoma): > 100 µM
- TGI (SN12C renal): 96.2 µM

SMILES: CCOC(=O)C(C)(C)Oc1ccc2c(=O)cc(-c3ccccc3)oc2c1
- TGI (786-0 renal): 37.7 µM
- TGI (A498 renal): > 100 µM
- TGI (HL-60(TB) leukemia): 32.8 µM
- TGI (MALME-3M melanoma): 37.6 µM
- TGI (MOLT-4 leukemia): 32.5 µM
- TGI (NCI-H226 lung): 47 µM
- TGI (SK-MEL-28 melanoma): 30.7 µM
- TGI (SN12C renal): > 100 µM

SMILES: Cc1cc(C)c(S(=O)(=O)N(CCCCN)OCCCN)c(C)c1
- TGI (BT-549 breast): 33.8 µM
- TGI (MALME-3M melanoma): 36.3 µM
- TGI (MCF7 breast): 35.3 µM
- TGI (MOLT-4 leukemia): 28.6 µM
- TGI (NCI-H226 lung): 31.8 µM
- TGI (SK-MEL-28 melanoma): 32.4 µM
- TGI (SN12C renal): 34.4 µM

SMILES: O=C(c1ccccc1)c1c(C(F)(F)F)n([O-])c2ccccc2[n+]1=O
- TGI (786-0 renal): > 100 µM
- TGI (A498 renal): 4.72 µM
- TGI (BT-549 breast): 1.93 µM
- TGI (HL-60(TB) leukemia): 1.42 µM
- TGI (MCF7 breast): 5.24 µM
- TGI (MOLT-4 leukemia): 0.516 µM
- TGI (SK-MEL-28 melanoma): 4.33 µM

SMILES: CN(C(=O)C1(C(=O)C=[N+]=[N-])CC1)c1ccccc1
- TGI (786-0 renal): > 100 µM
- TGI (BT-549 breast): > 100 µM
- TGI (HL-60(TB) leukemia): > 100 µM
- TGI (MALME-3M melanoma): > 100 µM
- TGI (MCF7 breast): > 100 µM
- TGI (MDA-MB-231 breast): > 100 µM
- TGI (MOLT-4 leukemia): > 100 µM
- TGI (NCI-H226 lung): > 100 µM
- TGI (SK-MEL-28 melanoma): > 100 µM
- TGI (SN12C renal): > 100 µM

SMILES: O=C1NC(=S)N/C1=C/c1ccccc1O
- TGI (786-0 renal): > 100 µM
- TGI (BT-549 breast): > 100 µM
- TGI (HL-60(TB) leukemia): > 100 µM
- TGI (MALME-3M melanoma): > 100 µM
- TGI (MCF7 breast): > 100 µM
- TGI (MDA-MB-231 breast): > 100 µM
- TGI (MOLT-4 leukemia): > 100 µM
- TGI (NCI-H226 lung): > 100 µM
- TGI (SK-MEL-28 melanoma): > 100 µM
- TGI (SN12C renal): > 100 µM

SMILES: C#CCNC(Cc1cnc[nH]1)C(=O)O (stereo not drawn)
- TGI (786-0 renal): > 100 µM
- TGI (A498 renal): > 100 µM
- TGI (HL-60(TB) leukemia): > 100 µM
- TGI (MALME-3M melanoma): > 100 µM
- TGI (MCF7 breast): > 100 µM
- TGI (MDA-MB-231 breast): > 100 µM
- TGI (MOLT-4 leukemia): > 100 µM
- TGI (NCI-H226 lung): > 100 µM
- TGI (SK-MEL-28 melanoma): > 100 µM
- TGI (SN12C renal): > 100 µM

SMILES: CN=C(Nn1cnnc1)OC
- TGI (786-0 renal): > 100 µM
- TGI (A498 renal): > 100 µM
- TGI (MALME-3M melanoma): > 100 µM
- TGI (MCF7 breast): > 100 µM
- TGI (MDA-MB-231 breast): > 100 µM
- TGI (MOLT-4 leukemia): > 100 µM
- TGI (SK-MEL-28 melanoma): > 100 µM

SMILES: N#Cc1c(Nc2ccc(F)cc2)[n+]([O-])c2ccc(Cl)cc2[n+]1[O-]
- TGI (786-0 renal): 27.5 µM
- TGI (A498 renal): 8.63 µM
- TGI (BT-549 breast): 74.4 µM
- TGI (MALME-3M melanoma): > 100 µM
- TGI (MCF7 breast): 6.1 µM
- TGI (MDA-MB-231 breast): 16.7 µM
- TGI (MOLT-4 leukemia): 9.09 µM
- TGI (NCI-H226 lung): 28.8 µM
- TGI (SK-MEL-28 melanoma): > 100 µM
- TGI (SN12C renal): 13.4 µM
